Experimental data published in patent publication US20220298213A1, “IN VIVO ENGINEERED CEREBLON PROTEIN” (Vividion Therapeutics, Inc., priority 2018, published 2022).
Each block holds one molecule with its values, some of them ahead of it.

Tests used:
Type in all cases: binding
CRBN-318 = CRBN-318 (Homo sapiens, UniProt Q96SW2); assay: Inhibition of probe labeling at screening concentration (Table 1); parameters: endogenous in cells; host or cells: cell lysate; details: native folded protein, read-out: Percentage inhibition of probe labeling, CRBN_318
Description: (§1) Cells were resuspended in cold PBS on ice and sonicated with a probe sonicator to achieve lysis. 200 μL of lysate containing 5 mg/ml proteome was treated with 2 μL of 100× compound stock in a 2-mL deep-well plate. The treated lysate was subsequently incubate at 25° C. for 1 hr with shaking at 600 rpm. The treated lysate was further incubated with 2 μL of 10 mM desthiobiotin iodoacetamide probe at 25° C. for 1 hr with shaking at 600 rpm. Next, the lysate was further treat with 20 μL of solution of PBS containing 11 mM MgSO4 and 2.5% Turbonuclease stock and incubated at 25° C. for 20 minutes with shaking at 600 rpm. 1.7 mL ice-cold acetone was added to each well and incubated at −20° C. for 2 hr, followed by max speed (4200 rpm) spin for 45 min. Acetone was then decanted and the plates were blotted to remove acetone. The plates were then dried in open air for 20 minutes. After drying, the plates were then covered with foil seal and stored at −80° C. overnight.

CRBN-287 = CRBN-287 (Homo sapiens, UniProt Q96SW2); assay: as above; parameters: endogenous in cells; host or cells: cell lysate; details: native folded protein, read-out: Percentage inhibition of probe labeling, CRBN_287
Description: as §1

PRTN_B = assay: as above; details: 500 μM
Description: as §1

PRTN_J = assay: as above; details: 500 μM
Description: as §1

PRTN_H = assay: as above; details: 500 μM
Description: as §1

PRTN_G = assay: as above; details: 500 μM
Description: as §1

PRTN_F = assay: as above; details: 500 μM
Description: as §1

PRTN_I = assay: as above; details: 500 μM
Description: as §1

PRTN_K = assay: as above; details: 500 μM
Description: as §1

PRTN_C = assay: as above; details: 500 μM
Description: as §1

PRTN_D = assay: as above; details: 500 μM
Description: as §1

PRTN_A = assay: as above; details: 500 μM
Description: as §1

PRTN_E = assay: as above; details: 500 μM
Description: as §1

CRBN Cys219 = molecular target: T1, CRBN Cys219 (Homo sapiens, UniProt Q96SW2); assay: Inhibition of iodoacetamide probe labeling of CRBN cysteines, cell lysate (Table 3A)
T1 construct: endogenous in cells
Description: (§2) “X@Y” means that x % inhibition of iodoacetamide probe labeling was observed by treatment of cell lysate with the give compound in each row of the table for 1 h at a concentration of y micromolar. There was consistently high inhibition at C318 in addition to C287, which can be attributed to an allosteric inhibition.

CRBN Cys234 = molecular target: T2, CRBN Cys234 (Homo sapiens, UniProt Q96SW2); assay: as above; details: cell lysate, 1 h
T2 construct: endogenous in cells
Description: as §2

CRBN Cys287 = molecular target: T3, CRBN Cys287 (Homo sapiens, UniProt Q96SW2); assay: as above
T3 construct: endogenous in cells
Description: as §2

CRBN Cys188 = molecular target: T4, CRBN Cys188 (Homo sapiens, UniProt Q96SW2); assay: as above
T4 construct: endogenous in cells
Description: as §2

CRBN Cys205 = molecular target: T5, CRBN Cys205 (Homo sapiens, UniProt Q96SW2); assay: as above; details: cell lysate, 1 h
T5 construct: endogenous in cells
Description: as §2

CRBN Cys366 = molecular target: T6, CRBN Cys366 (Homo sapiens, UniProt Q96SW2); assay: as above; details: 7.8 micromolar, cell lysate, 1 h
T6 construct: endogenous in cells
Description: as §2

CRBN Cys318 = molecular target: T7, CRBN Cys318 (Homo sapiens, UniProt Q96SW2); assay: as above
T7 construct: endogenous in cells
Description: as §2

[1] = 7.8 micromolar, cell lysate, 1 h
[2] = 0.12 micromolar, cell lysate, 1 h
[3] = 2.0 micromolar, cell lysate, 1 h

Sequence of CRBN-318 (Q96SW2 whole entry): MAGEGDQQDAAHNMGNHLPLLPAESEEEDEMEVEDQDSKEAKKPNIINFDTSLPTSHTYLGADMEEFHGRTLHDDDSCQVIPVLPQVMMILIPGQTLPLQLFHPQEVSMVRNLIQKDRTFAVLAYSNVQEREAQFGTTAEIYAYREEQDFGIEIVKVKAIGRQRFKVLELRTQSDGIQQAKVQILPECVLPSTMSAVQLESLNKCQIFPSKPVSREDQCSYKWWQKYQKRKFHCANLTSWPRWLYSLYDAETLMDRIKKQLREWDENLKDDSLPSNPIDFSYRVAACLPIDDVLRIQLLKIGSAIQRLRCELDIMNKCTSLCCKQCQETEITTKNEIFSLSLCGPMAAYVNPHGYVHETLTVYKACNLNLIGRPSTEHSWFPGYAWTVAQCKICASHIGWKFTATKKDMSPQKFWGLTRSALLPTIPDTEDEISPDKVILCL
T5 sequence (Q96SW2 whole entry): as above
T3 sequence (Q96SW2 whole entry): as above
T1 sequence (Q96SW2 whole entry): as above
T7 sequence (Q96SW2 whole entry): as above
Sequence of CRBN-287 (Q96SW2 whole entry): as above
T2 sequence (Q96SW2 whole entry): as above
T4 sequence (Q96SW2 whole entry): as above
T6 sequence (Q96SW2 whole entry): as above

SMILES: C=CC(=O)N1CCC(Oc2cc(C)cc(-c3ccccc3OC)c2)CC1
inhibition at 500 µM (CRBN-318): 94%
inhibition at 500 µM (CRBN-287): 94%
Percentage inhibition of probe labeling, PRTN_B (PRTN_B): 2%
Percentage inhibition of probe labeling, PRTN_J (PRTN_J): 6%
Percentage inhibition of probe labeling, PRTN_H (PRTN_H): 9%
Percentage inhibition of probe labeling, PRTN_G (PRTN_G): 13%
Percentage inhibition of probe labeling, PRTN_F (PRTN_F): 6%
Percentage inhibition of probe labeling, PRTN_I (PRTN_I): 7%
Percentage inhibition of probe labeling, PRTN_K (PRTN_K): 13%
Percentage inhibition of probe labeling, PRTN_C (PRTN_C): 18%
Percentage inhibition of probe labeling, PRTN_D (PRTN_D): 9%
Percentage inhibition of probe labeling, PRTN_A (PRTN_A): 7%
Percentage inhibition of probe labeling, PRTN_E (PRTN_E): 11%

SMILES: C=CC(=O)N1CCC(Oc2cc(C)cc(-c3ccccc3)c2)CC1
inhibition at 500 µM (CRBN-318): 76%
inhibition at 500 µM (CRBN-287): 72%
Percentage inhibition of probe labeling, PRTN_B (PRTN_B): −1%
Percentage inhibition of probe labeling, PRTN_J (PRTN_J): −2%
Percentage inhibition of probe labeling, PRTN_H (PRTN_H): −5%
Percentage inhibition of probe labeling, PRTN_G (PRTN_G): −8%
Percentage inhibition of probe labeling, PRTN_F (PRTN_F): −12%
Percentage inhibition of probe labeling, PRTN_I (PRTN_I): 0%
Percentage inhibition of probe labeling, PRTN_K (PRTN_K): 17%
Percentage inhibition of probe labeling, PRTN_C (PRTN_C): 15%
Percentage inhibition of probe labeling, PRTN_D (PRTN_D): 2%
Percentage inhibition of probe labeling, PRTN_A (PRTN_A): 5%
Percentage inhibition of probe labeling, PRTN_E (PRTN_E): 2%

SMILES: COc1ccccc1-c1cc(OC2CCN(C(=O)/C(C#N)=C/C(C)C)CC2)cc(C(N)=O)c1 [Example A5]
inhibition at 0.49 µM (CRBN Cys219; 0.49 micromolar, cell lysate, 1 h): 17%
inhibition at 7.8 µM (CRBN Cys219; [1]): 13%
inhibition at 125 µM (CRBN Cys219; 125 micromolar, cell lysate, 1 h, read-out: % inhibition of iodoacetamide probe labeling, Cys219): 25%
inhibition at 500 µM (CRBN Cys219; 500 micromolar, cell lysate, 1 h, read-out: % inhibition of iodoacetamide probe labeling, Cys219): 13%
inhibition at 2 µM (CRBN Cys219; read-out: % inhibition of iodoacetamide probe labeling, Cys219): 22%
inhibition at 2 µM (CRBN Cys234; 2.0 micromolar): 19%
inhibition at 7.8 µM (CRBN Cys234; 7.8 micromolar): 35%
inhibition at 31.2 µM (CRBN Cys234; 31.2 micromolar, read-out: % inhibition of iodoacetamide probe labeling, Cys234): 37%
inhibition at 125 µM (CRBN Cys234; 125 micromolar, read-out: % inhibition of iodoacetamide probe labeling, Cys234): 60%
inhibition at 500 µM (CRBN Cys234; 500 micromolar, read-out: % inhibition of iodoacetamide probe labeling, Cys234): 25%
inhibition at 0.12 µM (CRBN Cys287; [2]): 70%
inhibition at 2 µM (CRBN Cys287; 2.0 micromolar, cell lysate, 1 h, read-out: % inhibition of iodoacetamide probe labeling, Cys287): 93%
inhibition at 7.8 µM (CRBN Cys287; [1]): 96%
inhibition at 31.2 µM (CRBN Cys287; 31.2 micromolar, cell lysate, 1 h, read-out: % inhibition of iodoacetamide probe labeling, Cys287): 98%
inhibition at 125 µM (CRBN Cys287; 125 micromolar, cell lysate, 1 h, read-out: % inhibition of iodoacetamide probe labeling, Cys287): 99%
inhibition at 500 µM (CRBN Cys287; 500 micromolar, cell lysate, 1 h, read-out: % inhibition of iodoacetamide probe labeling, Cys287): 99%
inhibition at 0.49 µM (CRBN Cys287; read-out: % inhibition of iodoacetamide probe labeling, Cys287): 83%
inhibition at 2 µM (CRBN Cys188; [3]): 22%
inhibition at 7.8 µM (CRBN Cys188; [1]): 13%
inhibition at 31.2 µM (CRBN Cys188; 31.2 micromolar, cell lysate, 1 h): 13%
inhibition at 125 µM (CRBN Cys188; 125 micromolar, cell lysate, 1 h): 7%
inhibition at 0.49 µM (CRBN Cys188; read-out: % inhibition of iodoacetamide probe labeling, Cys188): 17%
inhibition at 2 µM (CRBN Cys205; 2.0 micromolar): 19%
inhibition at 7.8 µM (CRBN Cys205; 7.8 micromolar): 36%
inhibition at 31.2 µM (CRBN Cys205; 31.2 micromolar, read-out: % inhibition of iodoacetamide probe labeling, Cys205): 29%
inhibition at 125 µM (CRBN Cys205; 125 micromolar, read-out: % inhibition of iodoacetamide probe labeling, Cys205): 37%
inhibition at 500 µM (CRBN Cys205; 500 micromolar, read-out: % inhibition of iodoacetamide probe labeling, Cys205): 31%
inhibition at 7.8 µM (CRBN Cys366): -22%
inhibition at 0.12 µM (CRBN Cys318; [2]): 77%
inhibition at 2 µM (CRBN Cys318; [3]): 85%
inhibition at 7.8 µM (CRBN Cys318; [1]): 93%
inhibition at 31.2 µM (CRBN Cys318; 31.2 micromolar, cell lysate, 1 h, read-out: % inhibition of iodoacetamide probe labeling, Cys318): 94%
inhibition at 125 µM (CRBN Cys318; 125 micromolar, cell lysate, 1 h, read-out: % inhibition of iodoacetamide probe labeling, Cys318): 95%
inhibition at 500 µM (CRBN Cys318; 500 micromolar, cell lysate, 1 h, read-out: % inhibition of iodoacetamide probe labeling, Cys318): 96%
inhibition at 0.49 µM (CRBN Cys318; read-out: % inhibition of iodoacetamide probe labeling, Cys318, 0.49 micromolar, cell lysate, 1 h): 76%

The next lines start with results.

inhibition at 500 µM (CRBN-318): 96%
inhibition at 500 µM (CRBN-287): 98%
SMILES: CCc1ccccc1-c1cccc(NC2CCN(C(=O)/C=C/CC(C)C)CC2)c1
Percentage inhibition of probe labeling, PRTN_B (PRTN_B): 3%
Percentage inhibition of probe labeling, PRTN_J (PRTN_J): 11%
Percentage inhibition of probe labeling, PRTN_H (PRTN_H): 4%
Percentage inhibition of probe labeling, PRTN_G (PRTN_G): 13%
Percentage inhibition of probe labeling, PRTN_F (PRTN_F): 2%
Percentage inhibition of probe labeling, PRTN_I (PRTN_I): 14%
Percentage inhibition of probe labeling, PRTN_K (PRTN_K): 22%
Percentage inhibition of probe labeling, PRTN_C (PRTN_C): 14%
Percentage inhibition of probe labeling, PRTN_D (PRTN_D): 17%
Percentage inhibition of probe labeling, PRTN_A (PRTN_A): 10%
Percentage inhibition of probe labeling, PRTN_E (PRTN_E): 12%

inhibition at 500 µM (CRBN-318): 98%
inhibition at 500 µM (CRBN-287): 97%
SMILES: C=CC(=O)N1CCC(Nc2cc(C(N)=O)cc(-c3ccccc3CC)c2)CC1
Percentage inhibition of probe labeling, PRTN_B (PRTN_B): 0%
Percentage inhibition of probe labeling, PRTN_J (PRTN_J): 7%
Percentage inhibition of probe labeling, PRTN_H (PRTN_H): 6%
Percentage inhibition of probe labeling, PRTN_G (PRTN_G): 6%
Percentage inhibition of probe labeling, PRTN_F (PRTN_F): 4%
Percentage inhibition of probe labeling, PRTN_I (PRTN_I): −1%
Percentage inhibition of probe labeling, PRTN_K (PRTN_K): 12%
Percentage inhibition of probe labeling, PRTN_C (PRTN_C): 19%
Percentage inhibition of probe labeling, PRTN_D (PRTN_D): 18%
Percentage inhibition of probe labeling, PRTN_A (PRTN_A): −2%
Percentage inhibition of probe labeling, PRTN_E (PRTN_E): 8%

inhibition at 500 µM (CRBN-318): 71%
inhibition at 500 µM (CRBN-287): 69%
SMILES: C=CC(=O)N1CCC(Cc2cccc(-c3ccccc3NC(C)=O)c2)CC1
Percentage inhibition of probe labeling, PRTN_B (PRTN_B): 8%
Percentage inhibition of probe labeling, PRTN_J (PRTN_J): 21%
Percentage inhibition of probe labeling, PRTN_H (PRTN_H): 2%
Percentage inhibition of probe labeling, PRTN_G (PRTN_G): 12%
Percentage inhibition of probe labeling, PRTN_F (PRTN_F): 7%
Percentage inhibition of probe labeling, PRTN_I (PRTN_I): −1%
Percentage inhibition of probe labeling, PRTN_K (PRTN_K): 20%
Percentage inhibition of probe labeling, PRTN_C (PRTN_C): 3%
Percentage inhibition of probe labeling, PRTN_D (PRTN_D): 8%
Percentage inhibition of probe labeling, PRTN_A (PRTN_A): 8%
Percentage inhibition of probe labeling, PRTN_E (PRTN_E): 9%
